This is an account of results in patent US9458113B2 (Boehringer Ingelheim International GmbH, priority 2014, dated 2016).

One may read the IC50 as the concentration needed to halve the response being measured. What is called inhibition is the drop in the measured response relative to a control, in per cent. One may read the solubility as how much of the substance goes into solution per volume. Read a low solubility as a poorly soluble substance.

The target of series [1] is hERG (human ether-a-go-go-related gene) potassium channel (Homo sapiens (Human), UniProt Q12809). Briefly: hERG inhibition patch clamp assay. In kind it is cell-based.
Chain of hERG (human ether-a-go-go-related gene) potassium channel (Q12809 whole entry): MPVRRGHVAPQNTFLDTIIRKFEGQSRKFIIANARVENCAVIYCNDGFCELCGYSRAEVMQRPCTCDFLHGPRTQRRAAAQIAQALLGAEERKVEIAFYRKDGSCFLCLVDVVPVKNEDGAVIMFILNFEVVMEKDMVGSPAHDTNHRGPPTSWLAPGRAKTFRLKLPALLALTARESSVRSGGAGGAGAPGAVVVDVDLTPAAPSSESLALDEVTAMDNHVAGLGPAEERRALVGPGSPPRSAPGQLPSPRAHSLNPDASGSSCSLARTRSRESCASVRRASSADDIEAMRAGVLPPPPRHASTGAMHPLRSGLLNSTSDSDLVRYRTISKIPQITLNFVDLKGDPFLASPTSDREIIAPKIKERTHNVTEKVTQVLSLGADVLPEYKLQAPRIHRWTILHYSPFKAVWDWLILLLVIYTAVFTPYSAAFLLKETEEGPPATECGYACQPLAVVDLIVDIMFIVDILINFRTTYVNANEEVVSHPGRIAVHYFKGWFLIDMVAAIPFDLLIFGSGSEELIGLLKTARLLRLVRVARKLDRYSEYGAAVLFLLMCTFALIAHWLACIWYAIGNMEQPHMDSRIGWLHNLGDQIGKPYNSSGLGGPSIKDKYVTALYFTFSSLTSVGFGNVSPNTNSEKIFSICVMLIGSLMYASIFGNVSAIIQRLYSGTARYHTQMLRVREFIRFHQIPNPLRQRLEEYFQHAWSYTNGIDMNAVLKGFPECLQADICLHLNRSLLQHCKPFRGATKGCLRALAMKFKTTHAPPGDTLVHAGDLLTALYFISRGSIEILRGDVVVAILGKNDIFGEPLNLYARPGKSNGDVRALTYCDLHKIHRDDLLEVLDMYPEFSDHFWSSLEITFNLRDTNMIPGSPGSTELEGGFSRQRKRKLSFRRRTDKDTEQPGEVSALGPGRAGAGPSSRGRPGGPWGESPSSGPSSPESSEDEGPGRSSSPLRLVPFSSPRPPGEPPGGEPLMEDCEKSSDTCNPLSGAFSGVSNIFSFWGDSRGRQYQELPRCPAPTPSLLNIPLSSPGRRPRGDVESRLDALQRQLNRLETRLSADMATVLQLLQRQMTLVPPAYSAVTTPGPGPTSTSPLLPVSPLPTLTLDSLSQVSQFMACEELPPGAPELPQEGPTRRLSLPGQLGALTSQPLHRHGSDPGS
For series [2], the target named is hERG potassium channel (Homo sapiens (Human), UniProt Q12809). In words: hERG inhibition patch clamp assay. Conditions: human, @ 10 μM. In kind it is cell-based. For orientation: hERG is a cardiac potassium channel; its block is linked to QT prolongation.
Chain of hERG potassium channel (Q12809 whole entry): as above
Series [3] in a line: Metabolic stability with human liver microsomes. In kind it is in vitro ADME. Conditions: pH 7.6; pooled human liver microsomes, 1 μM test compound, 37° C.; read-out: t1/2 INVITRO. In general terms: Liver microsomes are vesicles of endoplasmic reticulum, rich in cytochrome P450 enzymes.
In series [4] the target is cytochrome P450 2C9 (Homo sapiens (Human), UniProt P11712). Briefly: Cytochrome P450 2C9 inhibition. In kind it is in vitro ADME. The settings on record: human liver microsomes, Diclofenac hydroxylation; read-out: IC50 (CYP 2C9). From the text:
Assay for Determination of Cytochrome P450 2C9 Inhibition
(I=inhibitor concentration, S=slope factor, B=background activity)

Series [5] in a line: Aqueous solubility (Shaked Flask Method). Conditions: aqueous buffer, thermodynamic from solid, pH 6.8. In kind it is physicochemical. Here is the method:
Assay for Determination of Aqueous Solubility (“Shaked Flask Method”)
Saturated solutions are prepared in well plates by adding an appropriate volume of selected aqueous media (typically in the range of 0.25-1.5 ml) into each well which contains a known quantity of solid drug substance (typically in the range 0.5-5.0 mg). The wells are shaken or stirred for a predefined time period (typically in a range of 2-24 h) and then filtered using appropriate filter membranes (typically PTFE-filters with 0.45 μm pore size). Filter absorption is avoided by discarding the first few drops of filtrate. The amount of dissolved drug substance is determined by UV spectroscopy or by HPLC with UV-detection. In addition, the pH of the aqueous saturated solution is measured using a glass-electrode pH meter.

Chain of cytochrome P450 2C9 (P11712 whole entry): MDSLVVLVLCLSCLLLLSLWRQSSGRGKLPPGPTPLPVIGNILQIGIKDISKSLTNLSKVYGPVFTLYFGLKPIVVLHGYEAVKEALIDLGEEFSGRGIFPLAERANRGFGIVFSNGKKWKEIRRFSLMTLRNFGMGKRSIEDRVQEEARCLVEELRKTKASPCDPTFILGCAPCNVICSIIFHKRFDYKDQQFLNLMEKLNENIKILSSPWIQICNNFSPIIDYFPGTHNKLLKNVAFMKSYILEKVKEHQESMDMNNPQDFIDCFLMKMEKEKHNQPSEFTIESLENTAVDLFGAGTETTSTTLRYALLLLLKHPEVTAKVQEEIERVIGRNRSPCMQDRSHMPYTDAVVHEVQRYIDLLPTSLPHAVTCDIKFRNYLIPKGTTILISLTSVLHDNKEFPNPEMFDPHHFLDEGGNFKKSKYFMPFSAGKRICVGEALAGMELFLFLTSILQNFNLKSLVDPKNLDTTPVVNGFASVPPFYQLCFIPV

For the compound `CN1C(=O)N(c2cccc(C(F)(F)F)c2)C2=C(C(=O)CC2)[C@H]1c1ccc(C#N)cc1C(N)=O` [Example 2, 5-Cyano-2-[(R)-3-methyl-2,5-dioxo-1-(3-trifluoromethyl-phenyl)-2,3,4,5,6,7-hexahydro-1H-cyclopentapyrimidin-4-yl]-benzamide], the IC50 in series [1] was above 30 µM; in series [4], above 50 µM. In series [2], this compound yielded an inhibition at 10 µM of 4%. Besides, in series [3], the half-life at 1 μM is above 2.17 h. In series [5], this compound showed a solubility above 10 µg/mL.

For `CN1C(=O)N(c2cccc(C(F)(F)F)c2)C2=C(C(=O)CC2)[C@H]1c1ccc(C#N)cc1-c1ccc(=O)n(C)c1` [Example 23, 4-[(R)-3-Methyl-2,5-dioxo-1-(3-trifluoromethyl-phenyl)-2,3,4,5,6,7-hexahydro-1H-cyclopentapyrimidin-4-yl]-3-(1-methyl-6-oxo-1,6-dihydro-pyridin-3-yl)-benzonitrile], the IC50 was above 30 µM in series [1] and above 50 µM in series [4]. In addition, the inhibition at 10 µM in series [2] was 5%. Further, in series [3], the half-life at 1 μM was above 2.17 h. Besides, in series [5], the solubility was above 10 µg/mL.

Regarding `CN1C(=O)N(c2cccc(C(F)(F)F)c2)C2=C(C(=O)CC2)[C@H]1c1ccc(C#N)cc1CNC(C)(C)C` [Example 24, 3-(tert-Butylamino-methyl)-4-[(R)-3-methyl-2,5-dioxo-1-(3-trifluoromethyl-phenyl)-2,3,4,5,6,7-hexahydro-1H-cyclopentapyrimidin-4-yl]-benzonitrile], the IC50 is above 30 µM in series [1] and above 50 µM in series [4]. In addition, 10 µM produced 7% inhibition in series [2]. The half-life at 1 μM in series [3] was above 2.17 h. Further, the solubility in series [5] is above 10 µg/mL.
